Legend:
[1] = molecular target: EIF2AK3 (PERK) catalytic domain (amino acids 536-1116) (Homo sapiens (Human), UniProt Q9NZJ5); test: PERK in vitro activity assay (isolated), TR-FRET kinase assay; settings: isolated PERK enzyme, 1.5 μM ATP, GFP-eIF2a substrate; read-out: Biochemical IC50
Method in brief: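 Human PERK catalytic domain (aa 536-1116) with 100-200 nM GFP-eIF2a in 50 mM HEPES pH 7.5, 10 mM MgCl2, 1.0 mM EGTA, 0.01% Brij-35; enzyme-started reaction run 45 min at room temperature. Stopped with 10 mM EDTA, 2 nM Tb-anti-phospho-eIF2a added for 90 min; IC50 from TR-FRET ratio by 4-parameter logistic fit.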

[2] = molecular target: PERK (Homo sapiens (Human), UniProt Q9NZJ5); test: PERK cellular assay (TR-FRET, HEK293-EGFP-eIF2α cells, tunicamycin-induced ER stress); type: cell-based; settings: tunicamycin 2 hours, read-out: Cellular IC50 (μM) (EIF2a)
Sequence of PERK (Q9NZJ5 30-1116): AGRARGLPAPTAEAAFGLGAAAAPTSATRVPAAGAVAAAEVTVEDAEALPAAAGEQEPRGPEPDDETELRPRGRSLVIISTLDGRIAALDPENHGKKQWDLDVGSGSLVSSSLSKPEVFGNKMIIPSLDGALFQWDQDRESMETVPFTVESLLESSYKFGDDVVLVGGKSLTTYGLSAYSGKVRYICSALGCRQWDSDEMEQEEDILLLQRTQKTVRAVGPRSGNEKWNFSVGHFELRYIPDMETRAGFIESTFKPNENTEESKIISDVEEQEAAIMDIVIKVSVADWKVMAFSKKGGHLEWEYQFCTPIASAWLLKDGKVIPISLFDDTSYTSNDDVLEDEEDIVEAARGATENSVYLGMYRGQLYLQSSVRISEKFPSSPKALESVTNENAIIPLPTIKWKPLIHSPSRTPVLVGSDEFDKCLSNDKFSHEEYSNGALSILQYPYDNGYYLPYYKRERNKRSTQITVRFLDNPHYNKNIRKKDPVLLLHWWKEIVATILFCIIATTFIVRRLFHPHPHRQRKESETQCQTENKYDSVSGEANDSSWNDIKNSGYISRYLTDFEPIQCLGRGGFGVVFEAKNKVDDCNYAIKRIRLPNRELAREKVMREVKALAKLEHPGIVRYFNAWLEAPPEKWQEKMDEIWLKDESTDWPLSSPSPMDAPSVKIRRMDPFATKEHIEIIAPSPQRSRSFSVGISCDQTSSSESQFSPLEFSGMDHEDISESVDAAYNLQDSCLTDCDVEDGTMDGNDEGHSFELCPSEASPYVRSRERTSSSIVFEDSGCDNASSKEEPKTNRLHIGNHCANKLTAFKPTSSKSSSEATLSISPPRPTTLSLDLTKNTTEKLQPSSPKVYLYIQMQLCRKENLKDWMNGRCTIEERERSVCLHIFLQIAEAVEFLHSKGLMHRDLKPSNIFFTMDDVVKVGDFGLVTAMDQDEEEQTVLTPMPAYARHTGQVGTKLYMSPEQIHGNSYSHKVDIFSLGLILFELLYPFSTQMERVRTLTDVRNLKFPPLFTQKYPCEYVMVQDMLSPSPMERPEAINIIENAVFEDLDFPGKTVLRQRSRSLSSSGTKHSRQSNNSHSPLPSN
Method in brief: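 After 2 h tunicamycin ([…]) stress following 30 min compound pretreatment at 37 °C, lysed HEK293-EGFP-eIF2α cells were read by TR-FRET. IC50 derived by 4-parameter logistic fitting of percent inhibition, DMSO-normalized, from 10-point 3-fold dilutions.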

Sequence of EIF2AK3 (PERK) catalytic domain (amino acids 536-1116) (Q9NZJ5 536-1116): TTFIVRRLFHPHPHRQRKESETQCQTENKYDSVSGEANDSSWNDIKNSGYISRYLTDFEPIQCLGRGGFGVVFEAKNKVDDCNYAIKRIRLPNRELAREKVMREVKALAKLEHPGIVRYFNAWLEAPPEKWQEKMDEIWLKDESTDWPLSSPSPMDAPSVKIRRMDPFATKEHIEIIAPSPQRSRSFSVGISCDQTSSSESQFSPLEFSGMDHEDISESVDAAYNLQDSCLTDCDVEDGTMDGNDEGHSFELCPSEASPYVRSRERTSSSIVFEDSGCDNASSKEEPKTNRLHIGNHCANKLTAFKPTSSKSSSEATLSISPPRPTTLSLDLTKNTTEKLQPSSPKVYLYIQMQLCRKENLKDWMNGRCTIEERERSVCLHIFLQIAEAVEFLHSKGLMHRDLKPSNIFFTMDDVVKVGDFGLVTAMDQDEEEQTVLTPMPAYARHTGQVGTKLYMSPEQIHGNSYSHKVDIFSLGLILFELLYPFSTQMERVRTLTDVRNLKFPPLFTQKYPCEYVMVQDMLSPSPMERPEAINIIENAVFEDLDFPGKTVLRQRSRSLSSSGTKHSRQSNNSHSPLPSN

| IC50 [1] [nM] | IC50 [2] [µM] | Structure (SMILES) |
| --- | --- | --- |
| 1 to 25 | 0.251 to 0.5 | CC(C)NC(=O)c1cc(-c2ccc(NC(=O)C(O)c3cc(F)cc(F)c3)cc2)cnc1N (stereo not drawn) [Example 80, 2-amino-5-(4-(2-(3,5-difluorophenyl)-2-hydroxyacetamido)phenyl)-N-isopropylnicotinamide] |
| 101 to 250 | 4 to 5 | CC(C)NC(=O)c1cc(-c2ccc(NC(=O)C(O)c3cc(F)cc(F)c3)cc2)cnc1N (stereo not drawn) [Example 81, 2-amino-5-(4-(2-(3,5-difluorophenyl)-2-hydroxyacetamido)phenyl)-N-isopropylnicotinamide] |
| 1 to 25 | 0.026 to 0.05 | CCNC(=O)c1cc(-c2ccc(NC(=O)C(O)c3cc(F)cc(F)c3)cc2Cl)cnc1N (stereo not drawn) [Example 82, 2-amino-5-(2-chloro-4-(2-(3,5-difluorophenyl)-2-hydroxyacetamido)phenyl)-N-ethylnicotinamide] |
| 1 to 25 | 0.251 to 0.5 | CCNC(=O)c1cc(-c2ccc(NC(=O)C(O)c3cc(F)cc(F)c3)cc2Cl)cnc1N (stereo not drawn) [Example 83, 2-amino-5-(2-chloro-4-(2-(3,5-difluorophenyl)-2-hydroxyacetamido)phenyl)-N-ethylnicotinamide] |
| 1 to 25 | 0.001 to 0.025 | Nc1ncc(-c2ccc(NC(=O)C(O)c3cc(F)cc(F)c3)cc2Cl)cc1C(=O)NC1CC1 (stereo not drawn) [Example 84, 2-amino-5-(2-chloro-4-(2-(3,5-difluorophenyl)-2-hydroxyacetamido)phenyl)-N-cyclopropyl-nicotinamide] |
| 1 to 25 | 0.051 to 0.1 | Nc1ncc(-c2ccc(NC(=O)C(O)c3cc(F)cc(F)c3)cc2Cl)cc1C(=O)NC1CC1 (stereo not drawn) [Example 85, 2-amino-5-(2-chloro-4-(2-(3,5-difluorophenyl)-2-hydroxyacetamido)phenyl)-N-cyclo-propylnicotinamide] |
| 1 to 25 | 0.001 to 0.025 | Nc1ncc(-c2ccc(NC(=O)C(O)c3cc(F)cc(F)c3)cc2Cl)cc1C(=O)NCC(F)(F)F (stereo not drawn) [Example 86, 2-amino-5-(2-chloro-4-(2-(3,5-difluorophenyl)-2-hydroxyacetamido)phenyl)-N-(2,2,2-trifluoroethyl) nicotinamide] |
| 26 to 50 | 0.101 to 0.25 | Nc1ncc(-c2ccc(NC(=O)C(O)c3cc(F)cc(F)c3)cc2Cl)cc1C(=O)NCC(F)(F)F (stereo not drawn) [Example 87, 2-amino-5-(2-chloro-4-(2-(3,5-difluorophenyl)-2-hydroxyacetamido)phenyl)-N-(2,2,2-trifluoroethyl) nicotinamide] |
| 1 to 25 | 0.001 to 0.025 | CCc1cccc(C(O)C(=O)Nc2ccc(-c3cnc(N)c(C(=O)NC(C)C)c3)c(Cl)c2)c1 (stereo not drawn) [Example 94, 2-amino-5-(2-chloro-4-(2-(3-ethylphenyl)-2-hydroxyacetamido)phenyl)-N-isopropylnicotinamide] |
| 26 to 50 | 0.101 to 0.25 | CCc1cccc(C(O)C(=O)Nc2ccc(-c3cnc(N)c(C(=O)NC(C)C)c3)c(Cl)c2)c1 (stereo not drawn) [Example 95, 2-amino-5-(2-chloro-4-(2-(3-ethylphenyl)-2-hydroxyacetamido)phenyl)-N-isopropylnicotinamide] |
| 1 to 25 | 0.001 to 0.025 | CCNC(=O)c1cc(-c2ccc(NC(=O)C(O)c3cc(F)cc(F)c3)cc2CC)cnc1N (stereo not drawn) [Example 98, 2-amino-5-(4-(2-(3,5-difluorophenyl)-2-hydroxyacetamido)-2-ethylphenyl)-N-ethylnicotinamide] |
| 26 to 50 | 0.101 to 0.25 | CCNC(=O)c1cc(-c2ccc(NC(=O)C(O)c3cc(F)cc(F)c3)cc2CC)cnc1N (stereo not drawn) [Example 99, 2-amino-5-(4-(2-(3,5-difluorophenyl)-2-hydroxyacetamido)-2-ethylphenyl)-N-ethylnicotinamide] |
| 1 to 25 | 0.001 to 0.025 | CCc1cc(NC(=O)C(O)c2cc(F)cc(F)c2)ccc1-c1cnc(N)c(C(=O)NCC(F)(F)F)c1 (stereo not drawn) [Example 100, 2-amino-5-(4-(2-(3,5-difluorophenyl)-2-hydroxyacetamido)-2-ethylphenyl)-N-(2,2,2-trifluoroethyl) nicotinamide] |
| 1 to 25 | 0.051 to 0.1 | CCc1cc(NC(=O)C(O)c2cc(F)cc(F)c2)ccc1-c1cnc(N)c(C(=O)NCC(F)(F)F)c1 (stereo not drawn) [Example 101, 2-amino-5-(4-(2-(3,5-difluorophenyl)-2-hydroxyacetamido)-2-ethylphenyl)-N-(2,2,2-trifluoroethyl) nicotinamide] |
| 1 to 25 | 0.001 to 0.025 | CCc1cc(NC(=O)C(O)c2cc(F)cc(F)c2)ccc1-c1cnc(N)c(C(=O)NC2CC2)c1 (stereo not drawn) [Example 102, 2-amino-N-cyclopropyl-5-(4-(2-(3,5-difluorophenyl)-2-hydroxyacetamido)-2-ethylphenyl) nicotinamide] |
| 26 to 50 | 0.101 to 0.25 | CCc1cc(NC(=O)C(O)c2cc(F)cc(F)c2)ccc1-c1cnc(N)c(C(=O)NC2CC2)c1 (stereo not drawn) [Example 103, 2-amino-N-cyclopropyl-5-(4-(2-(3,5-difluorophenyl)-2-hydroxyacetamido)-2-ethylphenyl) nicotinamide] |
| 1 to 25 | 0.001 to 0.025 | CCc1cccc(C(O)C(=O)Nc2ccc(-c3cnc(N)c(C(=O)NC(C)C)c3)c(CC)c2)c1 (stereo not drawn) [Example 106, 2-amino-5-(2-ethyl-4-(2-(3-ethylphenyl)-2-hydroxyacetamido)phenyl)-N-isopropylnicotinamide] |
| 51 to 100 | 0.251 to 0.5 | CCc1cccc(C(O)C(=O)Nc2ccc(-c3cnc(N)c(C(=O)NC(C)C)c3)c(CC)c2)c1 (stereo not drawn) [Example 107, 2-amino-5-(2-ethyl-4-(2-(3-ethylphenyl)-2-hydroxyacetamido)phenyl)-N-isopropylnicotinamide] |
| 1 to 25 | 0.001 to 0.025 | CCc1cc(NC(=O)C(O)c2cccc(C(F)(F)F)c2)ccc1-c1cnc(N)c(C(=O)NC(C)C)c1 (stereo not drawn) [Example 110, 2-amino-5-(2-ethyl-4-(2-hydroxy-2-(3-(trifluoromethyl)phenyl)acetamido)phenyl)-N-isopropylnicotinamide] |
| 101 to 250 | 0.101 to 0.25 | CCc1cc(NC(=O)C(O)c2cccc(C(F)(F)F)c2)ccc1-c1cnc(N)c(C(=O)NC(C)C)c1 (stereo not drawn) [Example 111, 2-amino-5-(2-ethyl-4-(2-hydroxy-2-(3-(trifluoromethyl)phenyl)acetamido)phenyl)-N-isopropylnicotinamide] |
| 51 to 100 | 0.251 to 0.5 | COc1cc(NC(=O)C(O)c2cc(F)cc(F)c2)ccc1-c1cnc(N)c(C(=O)NC(C)C)c1 (stereo not drawn) [Example 112, 2-amino-5-(4-(2-(3,5-difluorophenyl)-2-hydroxyacetamido)-2-methoxyphenyl)-N-isopropylnicotinamide] |
| 51 to 100 | 0.501 to 1 | CC(C)NC(=O)c1cc(-c2ccc(NC(=O)C(O)c3cc(F)cc(F)c3)cc2OC(F)(F)F)cnc1N (stereo not drawn) [Example 113, 2-amino-5-(4-(2-(3,5-difluorophenyl)-2-hydroxyacetamido)-2-(trifluoromethoxy)phenyl)-N-isopropylnicotinamide] |
| 251 to 500 | > 5 | CC(C)NC(=O)c1cc(-c2ccc(NC(=O)C(O)c3cc(F)cc(F)c3)cc2OC(F)(F)F)cnc1N (stereo not drawn) [Example 114, 2-amino-5-(4-(2-(3,5-difluorophenyl)-2-hydroxyacetamido)-2-(trifluoromethoxy)phenyl)-N-isopropylnicotinamide] |
| 1 to 25 | 0.001 to 0.025 | Cc1c(-c2cnc(N)c(C(=O)NC(C)C)c2)ccc(NC(=O)C(O)c2cc(F)cc(F)c2)c1F (stereo not drawn) [Example 115, 2-amino-5-(4-(2-(3,5-difluorophenyl)-2-hydroxyacetamido)-3-fluoro-2-methylphenyl)-N-isopropylnicotinamide] |
| 251 to 500 | 1 to 2 | Cc1c(-c2cnc(N)c(C(=O)NC(C)C)c2)ccc(NC(=O)C(O)c2cc(F)cc(F)c2)c1F (stereo not drawn) [Example 116, 2-amino-5-(4-(2-(3,5-difluorophenyl)-2-hydroxyacetamido)-3-fluoro-2-methylphenyl)-N-isopropylnicotinamide] |
| 1 to 25 | 0.001 to 0.025 | CCNC(=O)c1cc(-c2ccc(NC(=O)C(O)c3cc(F)cc(F)c3)c(F)c2C)cnc1N (stereo not drawn) [Example 117, 2-amino-5-(4-(2-(3,5-difluorophenyl)-2-hydroxyacetamido)-3-fluoro-2-methylphenyl)-N-ethylnicotinamide] |
| 1 to 25 | 0.026 to 0.05 | CCNC(=O)c1cc(-c2ccc(NC(=O)C(O)c3cc(F)cc(F)c3)c(F)c2C)cnc1N (stereo not drawn) [Example 118, 2-amino-5-(4-(2-(3,5-difluorophenyl)-2-hydroxyacetamido)-3-fluoro-2-methylphenyl)-N-ethylnicotinamide] |
| 1 to 25 | 0.001 to 0.025 | Cc1c(-c2cnc(N)c(C(=O)NC3CC3)c2)ccc(NC(=O)C(O)c2cc(F)cc(F)c2)c1F (stereo not drawn) [Example 119, 2-amino-N-cyclopropyl-5-(4-(2-(3,5-difluorophenyl)-2-hydroxyacetamido)-3-fluoro-2-methylphenyl) nicotinamide] |
| 1 to 25 | 0.051 to 0.1 | Cc1c(-c2cnc(N)c(C(=O)NC3CC3)c2)ccc(NC(=O)C(O)c2cc(F)cc(F)c2)c1F (stereo not drawn) [Example 120, 2-amino-N-cyclopropyl-5-(4-(2-(3,5-difluorophenyl)-2-hydroxyacetamido)-3-fluoro-2-methylphenyl) nicotinamide] |
| 1 to 25 | 0.001 to 0.025 | Cc1c(-c2cnc(N)c(C(=O)NC3COC3)c2)ccc(NC(=O)C(O)c2cc(F)cc(F)c2)c1F (stereo not drawn) [Example 121, 2-amino-5-(4-(2-(3,5-difluorophenyl)-2-hydroxyacetamido)-3-fluoro-2-methylphenyl)-N-(oxetan-3-yl)nicotinamide] |

Reference: patent US12473296B2, “Perk inhibiting compounds” (HiberCell, Inc., priority 2019, dated 2025)
